Here are results for 2 compounds from ChEMBL document CHEMBL1148928, “Hyrtiosenolides A and B, two new sesquiterpene gamma-methoxybutenolides and a new sterol from a Red Sea sponge Hyrtios species” (2004).

The structures appear in SMILES notation. Activity calls are given as the source filed them. The calls are words filed in the database; no cut-off is given here.

The subject of experiment [1] is Escherichia coli. Briefly: Antibacterial activity against Escherichia coli at 100 ug/disk. Type of experiment: functional.
The test system of experiment [2] is Escherichia coli. Nature of the experiment: Antibacterial activity against Escherichia coli at 50 ug/disk. Type of experiment: functional.

As to `C=C1[C@@]2(C)CCC3=CC(=O)O[C@]3(OC)[C@H](C2)C[C@@]1(C)O`, the result in the experiment on Escherichia coli [1] and in the experiment with Escherichia coli [2] was inactive.

As for `C=C1C[C@H]2C[C@](C)(CCC3=CC(=O)O[C@@]32OC)[C@]1(C)O` [HYRTIOSENOLIDE A], the zone of inhibition at 100 µg/disc in the experiment on Escherichia coli [1] (read-out: IZ) worked out at 7 mm. Moreover, the zone of inhibition at 50 µg/disc with Escherichia coli [2] (read-out: IZ) came out at 7 mm.
